Data on two molecules can be found in patent publication US20180193332A1, “LOW-TEMPERATURE STABLE OPIOID ANTAGONIST SOLUTIONS” (priority 2017, published 2018).

Data set [1] can be described thus: Naloxone stability (visual precipitation) during storage at 4° C. It counts as physicochemical.
Data set [2] can be described thus: Naloxone HCl precipitation after freeze/thaw. Format: physicochemical. An excerpt: However, the solution remained opaque when thawed, and precipitation was evident. […] The precipitate could not be re-dissolved in solution following sonication. […]
The mark [3] stands for this setting: per 100 mL: EDTA-Na2 0 mg, PG 5% w/v.
The mark [4] stands for this setting: per 100 mL: EDTA-Na2 0 mg, PG 10% w/v.
The mark [5] stands for this setting: per 100 mL: EDTA-Na2 0 mg, PG 20% w/v.
Where [6] appears, read: per 100 mL: EDTA-Na2 100 mg, PG 5% w/v.
The mark [7] stands for this setting: per 100 mL: EDTA-Na2 100 mg, PG 10% w/v.
Where [8] appears, read: per 100 mL: EDTA-Na2 100 mg, PG 20% w/v.

Counter-ions that a name gives are not always drawn.

Turning to `C=CCN1CC[C@]23c4c5ccc(O)c4O[C@H]2C(=O)CC[C@@]3(O)[C@H]1C5` [Naloxone], the “Observed naloxone precipitation 24 days” value in data set [1] (setting [3]) was “No”; in data set [1] (setting [4]), “No”; in data set [1] (setting [5]), “No”; in data set [1] (setting [6]) it was “No”; in data set [1] (setting [7]), “No”; in data set [1] (setting [8]), “No and Slight”. Also, the “Observed naloxone precipitation 35 days” value was “No” in data set [1] (setting [3]); “No” in data set [1] (setting [4]); “No” in data set [1] (setting [5]); “No” in data set [1] (setting [6]); “No” in data set [1] (setting [7]); “No and Yes” in data set [1] (setting [8]). The “Observed naloxone precipitation 53 days” value is “No” in data set [1] (setting [3]); “No” in data set [1] (setting [4]); “No” in data set [1] (setting [5]); “No” in data set [1] (setting [6]); “No and Slight” in data set [1] (setting [7]); “No and Yes” in data set [1] (setting [8]).
As to `C=CCN1CC[C@]23c4c5ccc(O)c4O[C@H]2C(=O)CC[C@@]3(O)[C@H]1C5` [naloxone HCl], the “Naloxone precipitation?” value in data set [2] (per mL: NaCl 3.7 mg, EDTA-Na2 2.0 mg, PG 20% w/v, EtOH 0% w/v, 1 freeze/thaw cycle) is listed as “yes”; in data set [2] (per mL: NaCl 7.4 mg, EDTA-Na2 0.0 mg, PG 5% w/v, EtOH 0% w/v, 3 freeze/thaw cycles) it was “No”; in data set [2] (per mL: NaCl 7.4 mg, EDTA-Na2 0.0 mg, PG 10% w/v, EtOH 0% w/v, 3 freeze/thaw cycles), “no”; in data set [2] (per mL: NaCl 7.4 mg, EDTA-Na2 0.0 mg, PG 20% w/v, EtOH 0% w/v, 3 freeze/thaw cycles), “no”; in data set [2] (per mL: NaCl 7.4 mg, EDTA-Na2 1.0 mg, PG 5% w/v, EtOH 0% w/v, 3 freeze/thaw cycles), “no”; in data set [2] (per mL: NaCl 7.4 mg, EDTA-Na2 1.0 mg, PG 10% w/v, EtOH 0% w/v, 3 freeze/thaw cycles), “no”. Further, the “Naloxone precipitation?” value was “no” in data set [2] (per mL: NaCl 7.4 mg, EDTA-Na2 1.0 mg, PG 20% w/v, EtOH 0% w/v, 4 freeze/thaw cycles); “no” in data set [2] (per mL: NaCl 7.4 mg, EDTA-Na2 1.0 mg, PG 20% w/v, EtOH 0% w/v, 7 freeze/thaw cycles); “yes” in data set [2] (per mL: NaCl 7.4 mg, EDTA-Na2 2.0 mg, PG 10% w/v, EtOH 0% w/v, 1 freeze/thaw cycle); “yes” in data set [2] (per mL: NaCl 7.4 mg, EDTA-Na2 2.0 mg, PG 20% w/v, EtOH 0% w/v, 1 freeze/thaw cycle); “yes” in data set [2] (per mL: NaCl 7.4 mg, EDTA-Na2 2.0 mg, PG 20% w/v, EtOH 2% w/v, 1 freeze/thaw cycle); “yes” in data set [2] (per mL: NaCl 7.4 mg, EDTA-Na2 2.0 mg, PG 20% w/v, EtOH 5% w/v, 1 freeze/thaw cycle). In addition, the “Naloxone precipitation?” value is recorded as “yes” in data set [2] (per mL: NaCl 7.4 mg, EDTA-Na2 2.0 mg, PG 20% w/v, EtOH 10% w/v, 1 freeze/thaw cycle) and “yes” in data set [2] (per mL: NaCl 7.4 mg, EDTA-Na2 2.0 mg, PG 30% w/v, EtOH 0% w/v, 1 freeze/thaw cycle).
